# Experimental data from patent publication US8618167B2, “Methods of attenuating cognitive deficits with sulfonyl fluorides” (priority 2001, dated 2013).
# Key:
# [1] = test system: ischemia-induced loss of hippocampal pyramidal cells and acetylcholine; details: pretreatment; cited from earlier work
# [2] = test system: ischemic (MCAo) Sprague-Dawley rats; assay: Elevated body swing test (EBST), motor asymmetry after MCAo; format: in vivo, rat; details: 4 wks after MCAo, MSF 1 mg/kg at 24 and 48 hrs then 0.3 mg/kg every other day i.p., mean±S.E.M., vehicle 84.8±10, p>0.05
# brain AChE = molecular target: T1, brain AChE (Rattus norvegicus, UniProt P37136); details: cited from earlier work
# T1 sequence (P37136 32-614): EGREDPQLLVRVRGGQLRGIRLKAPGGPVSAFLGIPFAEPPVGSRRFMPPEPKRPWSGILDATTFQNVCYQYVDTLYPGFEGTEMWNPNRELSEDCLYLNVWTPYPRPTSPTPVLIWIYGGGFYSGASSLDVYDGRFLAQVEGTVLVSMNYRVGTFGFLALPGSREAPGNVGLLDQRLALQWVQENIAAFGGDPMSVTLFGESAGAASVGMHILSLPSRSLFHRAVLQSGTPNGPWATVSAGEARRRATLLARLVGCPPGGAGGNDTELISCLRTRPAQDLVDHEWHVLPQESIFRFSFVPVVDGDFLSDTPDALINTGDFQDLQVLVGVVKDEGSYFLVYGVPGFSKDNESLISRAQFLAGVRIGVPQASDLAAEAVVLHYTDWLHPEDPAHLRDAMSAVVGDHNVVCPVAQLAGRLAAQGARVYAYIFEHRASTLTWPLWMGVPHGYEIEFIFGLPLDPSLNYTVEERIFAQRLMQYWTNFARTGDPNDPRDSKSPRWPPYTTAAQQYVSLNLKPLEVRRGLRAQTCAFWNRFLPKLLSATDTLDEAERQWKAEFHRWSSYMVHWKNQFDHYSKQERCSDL
# [3] = test system: ischemic (MCAo) Sprague-Dawley rats; assay: Step-down passive avoidance test after MCAo; format: in vivo, rat
# From the text: Experimental Protocol. A total of 48 eight-week-old, male, Sprague-Dawley rats weighing about 250 g served as subjects in the present study. All animals were free of virus antibody. A 3-day acclimation period was allowed prior to using the animals. Animals were kept under a 12-12 hr light/dark cycle and allowed free access to food and water before and after surgical procedures. All experimental procedures followed UTEP IACUC guidelines for use of animals in research to minimize discomfort in the animals during surgery and in the recovery period. […] In study one (n=24), the 0.3 mg/kg dose of MSF, which was previously reported as efficacious in ameliorating cognitive deficits in animals, was used to initially provide the putative drug's effects on ischemic animals. Studies two (dose response effects of MSF; n=16) and three (withdrawal of MSF; n=8) were conducted to further characterize the direct neurobehavioral effects of MSF. […]
# The passive avoidance test followed the procedures described in detail elsewhere (Borlongan et al., 1998a; 1998b). […] Acquisition of the task was measured in terms of the amount of time it took the rat to remain on the platform continuously for 3 min. Twenty four hrs later, a retention test was conducted by placing the rat on the platform exactly as before and recording the latency to step-down measured to a maximum of 3 min. […]
# [4] = test system: middle-aged and older rats; details: chronic MSF treatment; cited from earlier work
# [5] = test system: brain acetylcholinesterase; details: cited from earlier work
# acetylcholinesterase = molecular target: T2, acetylcholinesterase (Rattus norvegicus, UniProt P37136); assay: Control acetylcholinesterase assays of brain after MSF treatment (Ellman spectrophotometric method); format: in vivo; details: same regimen; dissected brain part
# T2 construct: from tissue; host or cells: rat brain (whole brain, hippocampus, cortex, striatum/nucleus accumbens)
# T2 sequence (P37136 32-614): T1 sequence (P37136 32-614)
# Method: Control Acetylcholinesterase Assays. Two additional groups of normal control (non-ischemic) rats were treated with MSF (N=4) or peanut oil vehicle (N=4) in accordance with the exact procedures used with the other groups in order to estimate the level of acetylcholinesterase inhibition produced. At the end of the study, the rats were sacrificed and acetylcholinesterase assays were conducted at 25° C. according to the spectrophotometric method (Ellman et al., 1961) with minor modifications (pH set at 7.4 and using 1 mM acetyl-β-methyl-thiocholine iodide as substrate).
# Drugs. For study 1, animals received ip injections of either MSF (1 mg/kg at 24 and 48 hrs post-MCAo and 0.3 mg/kg thereafter every other day) or the vehicle, peanut oil, for four weeks. Each animal received 0.5 ml of the solution. For study 2, animals received 1 mg/kg at 24 and 48 hrs post-MCAo and 0, 0.15, 0.30 or 0.6 mg/kg of MSF in peanut oil using the same regimen mentioned above. For study 3, animals were introduced to the same regimen as in study 1, but thereafter received peanut oil every other day from four weeks up to eight weeks post-MCAo.
# [6] = test system: ischemic (MCAo) Sprague-Dawley rats; details: rat, in vivo
# [7] = molecular target: acetylcholinesterase in comparison to butyrylcholinesterase (Homo sapiens, UniProt P22303); details: cited from earlier work
# Chain of acetylcholinesterase in comparison to butyrylcholinesterase (P22303 32-614): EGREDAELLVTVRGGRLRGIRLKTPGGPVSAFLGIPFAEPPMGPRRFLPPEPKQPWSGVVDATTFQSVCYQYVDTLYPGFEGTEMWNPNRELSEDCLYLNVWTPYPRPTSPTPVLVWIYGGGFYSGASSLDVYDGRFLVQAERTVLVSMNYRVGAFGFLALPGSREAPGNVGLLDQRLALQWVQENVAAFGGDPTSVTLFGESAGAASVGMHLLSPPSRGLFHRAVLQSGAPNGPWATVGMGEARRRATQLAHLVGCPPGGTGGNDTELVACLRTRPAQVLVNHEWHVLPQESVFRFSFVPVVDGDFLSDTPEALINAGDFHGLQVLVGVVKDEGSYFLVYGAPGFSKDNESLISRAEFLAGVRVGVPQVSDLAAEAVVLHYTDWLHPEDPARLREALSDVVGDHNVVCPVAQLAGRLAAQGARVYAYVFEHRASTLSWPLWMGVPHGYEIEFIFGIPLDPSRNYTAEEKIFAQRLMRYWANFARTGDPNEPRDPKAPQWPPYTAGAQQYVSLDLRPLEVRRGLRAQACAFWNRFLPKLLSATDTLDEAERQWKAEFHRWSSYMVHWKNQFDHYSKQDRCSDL
# [8] = test system: septal ChAT immunoreactivity; assay: Choline acetyltransferase (ChAT) immunohistochemistry of the septum; format: in vivo, rat
# Method: Choline Acetyltransferase (ChAT) Immunohistochemistry. Following the behavioral test at 4 wks post-ischemia, randomly selected animals (n=4 per group) were deeply anesthetized and perfused intracardially with 150 ml saline followed by 150 ml of 4% paraformaldehyde. The brains were post-fixed overnight in 4% paraformaldehyde and subsequently immersed in 20% sucrose in 4% paraformaldehyde and stored at 8° C. until sectioning. A vibratome (Vibroslice, Fla.) was used to cut the brain (40 μm sections). Ten serial brain sections that included the septal region (+1.4 to +0.2 mm from the bregma) were processed for ChAT immunohistochemistry. Sections were pre-incubated in 5% blocking serum (normal goat, Jackson ImmunoResearch Laboratories, PA) in 0.1% Triton-X in 0.1 M NaPBS for 60 min, followed by incubation in the primary ChAT antibody (Boehringer Mannheim Biochemical, IN; 1:10 dilution in 0.1 M phosphate-buffered saline, NaPBS) at room temperature overnight. The sections were reacted with the appropriate biotinylated secondary antibody (1:2000) for 45 min, followed by an avidin-biotin-peroxidase complex system (ABC Elite Vectastain Kit, Vector, Burlingame, Calif.) for 45 min. Finally, the Vector VIP Kit (Vector, Burlingame, Calif.) was used to visualize the reaction product. The sections were mounted on gelatin-coated glass slides, dried overnight, dehydrated in increasing alcohol concentrations, and cover-slipped using Permount (Fisher Scientific, Pittsburgh, Pa.) mounting solution. Serial sections were digitized using a PC-based Image Tools computer program. To determine the ChAT alterations in the septum, comparisons of mean total number (average counts from ten brain sections per animal) of septal ChAT-immunoreactive (ir) neurons from MSF- and vehicle-treated ischemic animals were conducted. Individual counts of ChAT-ir neurons were made using the following criteria: heavily stained nuclei (HN), pale stained nuclei (PN) and presence of elaborate processes (P). […] In addition, a 5-point semi-quantitative scale was used to assess the intensity of ChAT immunoreactivity. […]
# SDAT patients = details: cited from earlier work
# [9] = chronic MSF 0.22 mg/kg three times per week
# [10] = single systemic injection of 1.5 mg/kg MSF
compound,measurement,setting,value
CCN(C)C(=O)Oc1cccc([C@H](C)N(C)C)c1 [ENA-173],levels of hippocampal acetylcholine and ischemia-induced loss of hippocampal pyramidal cells,[1],preserve the levels of hippocampal acetylcholine and to protect against ischemia-induced loss of pyramidal cells
"CS(=O)(=O)F [MSF, Methanesulfonyl fluoride]",biased swing activity (EBST),[2],87.7±8%
same,decrement in brain AChE activity,brain AChE; [9],about 50%
same,liver damage,brain AChE; [9],no liver damage
same,locomotor side effects,brain AChE; [9],without discernable locomotor side effects
same,behavioral alterations,brain AChE; [10],no observable behavioral alterations
same,reduction of brain AChE activity,brain AChE; [10],70%
same,passive avoidance: time to acquire the task,"[3]; 4 wks after MCAo, same regimen, mean±S.E.M., vehicle 398±62, p<0.05",255 ± 36 s
same,passive avoidance: retention of the task (step down latency),"[3]; retention test 24 hrs after acquisition, max 3 min, vehicle 79±26, p<0.05",145 ± 18 s
same,acquisition of one-trial per day discriminative reward learning task,[4],enhance the acquisition
same,toxicity at accumulated brain acetylcholinesterase inhibition,[5]; at up to 80-90% brain inhibition,without toxicity
same,inhibition of brain acetylcholinesterase that can be accumulated,"[5]; relatively small doses over a long period of time, minimum inhibition of peripheral enzyme",80-90%
same,acetylcholinesterase inhibition in cortex,acetylcholinesterase,85.9%
same,acetylcholinesterase inhibition in hippocampus,acetylcholinesterase,88.5%
same,acetylcholinesterase inhibition in striatum/nucleus accumbens,acetylcholinesterase,95.0%
same,ischemia-induced apoptotic cell death,[6],did not block ischemia-induced apoptotic cell death
same,mean volume of infarcted tissue,[6],78.1±14.2 mm^3
same,selectivity as inhibitor of acetylcholinesterase in comparison to butyrylcholinesterase,[7],high selectivity
same,intensity of staining of ChAT-ir neurons in lateral and medial septum,[8]; compared to vehicle-treated ischemic animals,more intense staining of ChAT-ir neurons
same,increment in mean total number of HN+P ChAT-ir cells vs vehicle-treated ischemic animals,"[8]; septum, 4 wks post-ischemia, heavily stained nuclei with processes, p<0.05",10%-15%
same,increment in mean total number of HN ChAT-ir cells vs vehicle-treated ischemic animals,"[8]; septum, 4 wks post-ischemia, heavily stained nuclei, p<0.05",10%-15%
same,persistence of cognition-enhancing effects after withdrawal,SDAT patients; SDAT patients,persisted up to eight weeks after withdrawal of the drug
same,cognitive performance of SDAT patients,"SDAT patients; double-blind, placebo-controlled study",significant clinical improvements
"COP(=O)(OC)C(O)C(Cl)(Cl)Cl (stereo not drawn) [metrifonate, reference compound]",selectivity as inhibitor of acetylcholinesterase in comparison to butyrylcholinesterase,[7],do not show this high degree of selectivity
